Blank lines part the entries; values can stand above or below the molecule they belong to.
Experiments:
Assay type in all cases: in vivo, Sprague-Dawley rats
[1] = system: thrombin/antithrombin III complex (TAT); experiment: Thrombin/antithrombin III complex (TAT) in plasma after endotoxin
Method: (§1) The body temperature was maintained at. 38° C. throughout the experiment by external heating.
[…]. […] Sham operated animals received saline instead of endotoxin.

[2] = Plasma concentration of melagatran (LC-MS)
Source text: (§2) Sham operated animals received saline instead of endotoxin.

rats given endotoxin = experiment: 125I-fibrinogen in the blood after endotoxin (experimental endotoxaemia); conditions: high dose heparin (group VIII); melagatran groups IV-VI; melagatran with dexamethasone groups XVII-XX
Method: as §1, §2
Adjustment for multiplicity was done using Scheffe. […] Corrections for multiple comparisons were made according to Bonferroni.

SMILES: C[C@@H]1C[C@H]2[C@@H]3CCC4=CC(=O)C=C[C@]4(C)[C@@]3(F)[C@@H](O)C[C@]2(C)[C@@]1(O)C(=O)CO [dexamethasone, Dexamethasone]
TAT (thrombin generation) ([1]; dexamethasone groups (discussion)): below 8 μg/l

SMILES: NC[C@H]1CC[C@H](C(=O)O)CC1 [tranexamic acid]
TAT ([1]; measured in some animals, group III, groups XV-XX): 55.5 ± 6.6 µg/L

mean plasma concentration of melagatran during the 5 h experiment ([2]; group IV, Mela low 0.13 μmol/kg bolus + 0.32 μmol/kg/h iv): 0.78 ± 0.08 µmol/L
plasma concentration of melagatran combined with heparin ([2]; group IX, Hep low + Mela low): 0.72 ± 0.09 µmol/L
mean plasma concentration of melagatran during the 5 h experiment ([2]; group V, Mela med 0.4 μmol/kg bolus + 1.0 μmol/kg/h iv): 2.83+0.45 μmol/l
mean plasma concentration of melagatran during the 5 h experiment ([2]; group VI, Mela high 1.3 μmol/kg bolus + 3.2 μmol/kg/h iv): 6.88 ± 0.42 µmol/L
plasma concentration of melagatran combined with heparin ([2]; group X, Hep low + Mela med): 1.97 ± 0.16 µmol/L
plasma concentration of melagatran in combination with dexamethasone ([2]; high dose group, first value (group XVIII, Dexa low 1 mg/kg + melagatran 0.4 μmol/kg + 1.0 μmol/kg/h)): 1.49 ± 0.13 µmol/L
plasma concentration of melagatran in combination with dexamethasone ([2]; high dose group, second value (group XX, Dexa high 10 mg/kg + melagatran 0.4 μmol/kg + 1.0 μmol/kg/h)): 1.28 ± 0.1 µmol/L
plasma concentration of melagatran in combination with dexamethasone ([2]; low dose group, first value (group XVII, Dexa low 1 mg/kg + melagatran 0.13 μmol/kg + 0.32 μmol/kg/h)): 0.48 ± 0.01 µmol/L
plasma concentration of melagatran in combination with dexamethasone ([2]; low dose group, second value (group XIX, Dexa high 10 mg/kg + melagatran 0.13 μmol/kg + 0.32 μmol/kg/h)): 0.46 ± 0.02 µmol/L
SMILES: N=C(N)c1ccc(CNC(=O)[C@@H]2CCN2C(=O)[C@H](NCC(=O)O)C2CCCCC2)cc1 [melagatran, HOOC—CH2—(R)Cgl-Aze-Pab-H]
fibrinogen consumption (rats given endotoxin): completely prevented

From patent publication US7449446B2, “Combination product comprising melagatran and dexamethasone” (AstraZeneca AB, priority 2001, dated 2008)
